Laboratory results reported in patent US20240374739A1, “BILE ACID CONJUGATE” (Curtin University, priority 2021, published 2024).

What was measured:
[1] = tested on: Neurodegenerated cells (Parkinson's disease model); assay: Adenosine triphosphate (ATP) assay, Parkinson's disease model; type: cell-based, human; settings: PD model; probucol 20 μM, SPQ 10 μM, HA-1 10 μM, L-Dopa 50 μM, 24 hours
Method: Perinatal tissue derived human stem cell model for Parkinson's disease (PD) was prepared using proprietary protocols to test the effect of new drug entities. Drug treatment was for 24 hours in all the assays.
Impaired energy metabolism and reduced ATP levels are common features of PD. Using the stem cell derived PD model, we measured ATP levels in drug treated (probucol, SPQ and HA-1 and L-Dopa) cells and compared with neurodegenerated (ND) cells.
Neurodegenerated cells were incubated with probucol (20 μM), SPQ (10 μM), HA-1 (10 μM) and L-Dopa (50 μM) for 24 hours (p<0.05; *p<0.05, **p<0.001, ***p<0.0001, ns=non-significant, n=3).

[2] = tested on: Rats subjected to sub-concussion (SC); assay: Rotarod test, brain injury (sub-concussion) study (Experimental Example 3); type: in vivo; settings: at 12 weeks (FIG. 14)
Excerpt: (§1) Repeated sub-concussive head impacts are reported to impair psychomotor function. Rats were subjected to sham procedure, sub-concussion (SC) with control diet (AlN93M), SC with probucol, SC with aged garlic extract (AGE), or SC with HA-1 for 12 weeks.
(§2) Both rotarod and beam walk tests assess neuromotor function. On beam walk, the higher the slips show the more impairment. On rotarod, the lower the latency indicates the more impairment.

[3] = tested on: Rats subjected to sub-concussion (SC); assay: Beam walk test, brain injury (sub-concussion) study (Experimental Example 3); type: in vivo
Excerpt: as §1, §2

[4] = tested on: rat model of repeated sub-concussion; assay: Beamwalk test, rat model of repeated sub-concussion (Experimental Example 6); type: in vivo, Female PVG rats; settings: rats, 12-week repeated sub-concussion, 2 cm beam; probucol 0.1% w/w, HA-1 0.2% w/w in diet (FIG. 20B)
Excerpt: (§3) Female PVG rats aged 5-7 weeks were used. Under complete anaesthesia with isoflurane, a 25 g weight was dropped onto lambda of the skull from a 1 m height. This was repeated consecutively for 10 times per procedure. The procedure was repeated 3 times per week (i.e., Monday, Wednesday, Friday) for the duration of 12 weeks. Sham group rats received the same procedure without the weight drops. The probucol treatment group received probucol which was supplemented into the diet at 0.1% w/w. The HA-1 treatment group received HA-1 also in the diet at 0.2% w/w for the entire duration of the study.
After the completion of 12-week sub-concussion procedures, neuromotor function was tested with established rotarod and beamwalk tests. On beamwalk, the higher the slips show, the more impairment. On rotarod, the lower the latency indicates the more impairment.

[5] = tested on: rat model of repeated sub-concussion; assay: Neuronal oxidative stress (8dOHG expression), rat model of repeated sub-concussion; type: in vivo, Female PVG rats; settings: rats, 12-week repeated sub-concussion
Excerpt: as §3
The rats were then sacrificed to obtain brain tissue for further analyses.

[6] = tested on: diabetic db/db mice; assay: Diabetic phenotype: plasma glucose, triglycerides, insulin, cholesterol in diabetic db/db mice; type: in vivo; settings: for plasma cholesterol: 14 and 28 weeks of age (FIGS. 23G and 23H)
Excerpt: (§4) In this study, 4-5 week old diabetic db/db mice were put onto a diet containing probucol 0.1% (w/w) or HA-1 0.2% (w/w) for either 10 or 24 weeks, till the age of 14 or 28 weeks, respectively. Passive avoidance test was used to assess short-term memory. Subsequently, the mice were sacrificed to obtain plasma and brain tissue samples for further analyses.
Elevation in plasma glucose, triglycerides and insulin are typical signs of diabetes, with cholesterol to lesser extent. Levels of plasma glucose, plasma triglyceride, plasma insulin, and plasma cholesterol levels were measured at 14 weeks of age and at 28 weeks of age (FIG. 23) (*p<0.05, **p<0.01, ***p<0.001, ****p<0.0001, n=12).

[7] = tested on: diabetic db/db mice; assay: Small intestinal apoB and Aβ in diabetic db/db mice; type: in vivo
Excerpt: as §4

[8] = tested on: diabetic db/db mice; assay: Plasma amyloid-β (Aβ40, Aβ42, oligomers, Aβ42/40 ratio) in diabetic db/db mice; type: in vivo
Excerpt: as §4, with “analyses. […]” for “analyses.”

[9] = tested on: diabetic db/db mice; assay: Oxidative stress and neuroinflammation (8dOHG, GFAP, Iba-1 expression) in diabetic db/db mice; type: in vivo; settings: for expression of 8dOHG in HPF: db/db mice (FIG. 28A); for expression of 8dOHG in CTX: db/db mice (FIG. 28B); for expression of GFAP in HPF: db/db mice (FIG. 28C); for expression of GFAP in CTX: db/db mice (FIG. 28D); for expression of Iba-1 in HPF: db/db mice (FIG. 28E); for expression of Iba-1 in CTX: db/db mice (FIG. 28F)
Excerpt: as §4
GFAP is a marker of astrocyte activation, which may confer anti-inflammatory effect.
Iba-1 expression indicates microglial activation, which is a surrogate marker of neuroinflammation.

[10] = tested on: OC-1 cells; assay: Seahorse bioenergetics experiment (oxygen consumption rate) after cisplatin; type: cell-based
Method: Mitochondrial function was analysed by measuring oxygen consumption rate (OCR) using real-time Seahorse Flux Analyser XF 96 (Seahorse Bioscience, USA) with our well-established method (Kovacevic, Bozica, et al. “Novel hydrogel comprising non-ionic copolymer with various concentrations of pharmacologically active bile acids for cellular injectable gel.” Colloids and Surfaces B: Biointerfaces (2022): 113014). Briefly, the first injection was with media without glucose, with subsequent ATP synthase inhibitor oligomycin and FCCP (carbonyl cyanide-p-trifluoromethoxy phenylhydrazone) and the final injection was complex […] inhibitors Rotenone+antimycin A 77. The result was automatically generated and analysed by the wave software. The OC-1 cells were pre-treated with cisplatin at three different concentrations (20, 30 and 40 μM) for 24 or 48 hours to induce cytotoxicity prior to the seahorse bioenergetics assays.

[11] = tested on: OC-1 cells; assay: Cobalt chloride hypoxia assay; type: cell-based; settings: cells pre-treated with CoCl2 at 100 μM for 24 hours, microscopic examination
Method: This assay is used to determine whether an intervention can reverse hypoxic-induced cell death brought about by cobalt chloride. For this assay, cells are pre-treated with CoCl2 at 100 μM for 24 hours, followed by microscopic examination of cell morphology and viability.

[12] = sub-concussion, 1, 2 and 3 cm beam, at 12 weeks
[13] = sub-concussion, 2 cm beam, after 6 weeks
[14] = 14 weeks of age, probucol 0.1% (w/w), HA-1 0.2% (w/w) in diet

Row | SMILES | ATP level [1] | number of slips in beam walk test [3, 12] | number of slips in beam walk test [3, 13] | foot slips in beamwalk test [4] | expression of 8dOHG (oxidative stress) in HPF and CTX [5] | plasma cholesterol [6] | plasma insulin ([6]; 14 weeks of age) | plasma triglycerides ([6]; 14 weeks of age) | plasma / blood glucose [6, 14] | plasma / blood glucose ([6]; 28 weeks of age) | plasma insulin ([6]; 28 weeks of age) | plasma triglycerides ([6]; 28 weeks of age) | small intestinal Aβ ([7]; 14 weeks of age) | small intestinal apoB ([7]; 14 weeks of age) | small intestinal Aβ ([7]; 28 weeks of age) | plasma Aβ40 ([8]; 14 weeks of age) | plasma Aβ42 ([8]; 14 weeks of age) | plasma concentrations of Aβ oligomers ([8]; 14 weeks of age) | plasma concentrations of Aβ oligomers ([8]; 28 weeks of age) | expression of 8dOHG in HPF [9] | other results
1 | CC(=O)O[C@@H]1CC[C@@]2(C)[C@H](CC[C@@H]3[C@@H]2CC[C@]2(C)[C@@H]([C@H](C)CCC(=O)Oc4c(C(C)(C)C)cc(SC(C)(C)Sc5cc(C(C)(C)C)c(O)c(C(C)(C)C)c5)cc4C(C)(C)C)CC[C@@H]32)C1 [HA-1, 2,6-di-tert-butyl-4-((2-((3,5-di-tert-butyl-4-hydroxyphenyl)thio)propan-2-yl)thio)phenyl (4R)-4-[(3R,5R,8R,9S,10S,13R,14S,17R)-3-acetoxy-10,13-dimethyl-2,3,4,5,6,7,8,9,11,12,14,15,16,17-tetradecahydro-1H-cyclopenta[a]phenanthren-17-yl]pentanoate] | Enhanced increase in ATP levels | did not show significant preventative effects | significant reduction in slips | completely normalised | substantially attenuated the cerebral oxidative stress levels | no beneficial effects on plasma cholesterol | significantly reduced | significantly attenuated plasma triglycerides | modest decrease in blood glucose | significantly reduced blood glucose with HA-1 presenting greater effects | lost the ameliorative effects on insulin | significantly reduced plasma triglycerides | comparable or superior effects | significantly attenuated | comparable or superior effects | did not change plasma Aβ40 levels | remarkably attenuated | significantly reduced | significantly reduced | better efficacy particularly in HPF | rotarod latency (average) [2]: significantly increased the latency; small intestinal apoB ([7]; 28 weeks of age): no longer seen; Aβ42/40 ratio ([8]; 14 weeks of age): remarkably reduced; Aβ42/40 ratio ([8]; 28 weeks of age): remarkably reduced; plasma Aβ40 ([8]; 28 weeks of age): increased plasma Aβ40 levels; plasma Aβ42 ([8]; 28 weeks of age): significantly reduced; expression of 8dOHG in CTX [9]: attenuated; expression of GFAP in HPF [9]: significant recovery; expression of GFAP in CTX [9]: ameliorated similarly; expression of Iba-1 in HPF [9]: substantially reduced the expression of Iba-1; expression of Iba-1 in CTX [9]: substantially reduced the expression of Iba-1; oxygen consumption rate (OCR) ([10]; OC-1 cells after 24 hours exposure to cisplatin (20, 30 and 40 μM)): significant and profound otoprotective effects; oxygen consumption rate (OCR) ([10]; OC-1 cells after 48 hours exposure to cisplatin (20, 30 and 40 μM)): significantly reverse the cytotoxic effects of cisplatin; cell morphology [11]: optimal morphology
2 | CC1(C)SC2(C=C(C(C)(C)C)C(=O)C(C(C)(C)C)=C2)C2(C=C(C(C)(C)C)C(=O)C(C(C)(C)C)=C2)S1 [SPQ, 2,4,9,11-tetrakis(1,1-dimethylethyl)-14,14-dimethyl-13,15-dithiadispiro[5.0.5.3]pentadeca-1,4,8,11-tetraene-3,10-dione] | Enhanced increase in ATP levels | – | – | – | – | – | – | – | – | – | – | – | – | – | – | – | – | – | – | – | –
3 | CC(C)(Sc1cc(C(C)(C)C)c(O)c(C(C)(C)C)c1)Sc1cc(C(C)(C)C)c(O)c(C(C)(C)C)c1 [probucol, 2,6-ditert-butyl-4-[2-(3,5-ditert-butyl-4-hydroxyphenyl)sulfanylpropan-2-ylsulfanyl]phenol] | – | did not show significant preventative effects | did not indicate any beneficial effects | modestly attenuated | some increase of 8dOHG particularly in the CTX | no beneficial effects on plasma cholesterol | significantly reduced | significantly attenuated plasma triglycerides | no significant effects | significantly reduced blood glucose | lost the ameliorative effects on insulin | significantly reduced plasma triglycerides | significantly attenuated | no significant reduction | significantly attenuated | did not change plasma Aβ40 levels | no beneficial effect | not observed | not observed | attenuated | expression of 8dOHG in CTX [9]: attenuated; expression of GFAP in HPF [9]: no benefits; expression of GFAP in CTX [9]: ameliorated similarly; expression of Iba-1 in HPF [9]: no beneficial effects; expression of Iba-1 in CTX [9]: no beneficial effects; cell morphology [11]: normal morphology
